Experimental data: patent US20220249538A1, “TREATMENT AGENT FOR SEX HORMONE-INSENSITIVE GREB1-POSITIVE TUMORS” (OSAKA UNIVERSITY, priority 2019, published 2022)

Assays:
Assay type in all cases: cell-based, human
HepG2 cells [1] = assay: Cell proliferation assay, two-dimensional culture (plastic dish), Cyquant
Protocol: Cells were seeded on a plate at 1.0×10^4 cells/mL, and, after 12 hours, the medium was replaced with a medium containing 10% serum. While the cell number was counted every 48 hours, the cells were cultured up to 10 days. The measurement of the cell number was performed using Cyquant NF assays (Life Technologies/Thermo Fisher Scientific) according to protocols recommended by the manufacturer.
Mock HepG2 cells (having a vector only, containing no GREB1) or GREB1-transduced HepG2 cells were transfected with control siRNA or two different types of siRNA (GREB1 #1 siRNA and GREB1 #2 siRNA), then two-dimensional culture (plastic dish culture) was performed, and a relative cell number was calculated by Cyquant assay overtime. As a result, in GREB1 knockdown, proliferative capacity of HepG2 cells in two-dimensional culture was reduced. However, when GREB1-transduced HepG2 cells were transfected with siRNAs against GREB1 (GREB1 #1 siRNA/GREB1 and GREB1 #2 siRNA/GREB1), the proliferative capacity of HepG2 cells was not affected (see a of FIG. 4).

[2] = test system: PAI-1 gene locus (exon 2); assay: Chromatin immunoprecipitation with anti-acetylated histone 4 antibody, PAI-1 exon 2; settings: HepG2 cells; presence or absence of 10 ng/mL TGFβ for 30 minutes
Protocol: Confluent HepG2 cells in a 10 cm dish were stimulated in the presence or absence of 5 ng/ml of TGFβ1 for 3 hours. Thereafter, the cells were allowed to crosslink using 1% formaldehyde at room temperature for 10 minutes, and the crosslinking reaction was terminated with 0.125 M glycine. The cells were washed three times with cold PBS, and thereafter the cells were removed and collected. Further, the cells were sedimented by centrifugation, and lysed with a sodium dodecyl sulfate (SDS) lysis buffer (50 mM Tris/HCl [pH 8.0], 10 mM EDTA, and 0.5% SDS). The cell lysates were subjected to ultrasonication to shear DNA into DNA fragments having sizes of 200 to 1000 bp. Supernatant of the sheared chromatin was diluted with ChIP dilution buffer (16.7 mM Tris/HCl [pH 8.0], 167 mM NaCl, 1.2 mM EDTA, and 1.1% Triton X-100) containing a protease inhibitor and a phosphatase inhibitor, and precleared by adding salmon sperm DNA/protein A-agarose beads (Millipore, Billerica, Mass., USA). […]
Further, HepG2 cells transfected with control siRNA or GREB1 #2 siRNA were cultured in the presence or absence of 10 ng/mL of TGFβ for 30 minutes. […] Next, the exon 2 domain of PAI contained in the cell lysates (Input) and immunoprecipitates (IP) was analyzed by PCR using domain-specific primers.

HepG2 cells [3] = assay: mRNA (real-time PCR) and protein (lysate probing) expression in HepG2 cells
Protocol: Using RNAiMAX (Life Technologies/Thermo Fisher Scientific), HepG2 cells, Huh6 cells, Hep3B cells, JHH7 cells, and SKMEL28 cells were each transfected with each siRNA (10 nm). In experiments, the cells were used from 48 to 120 hours after transfection.

HepG2 cells [4] = assay: Three-dimensional Matrigel culture, area of spheres; settings: 3D Matrigel for 5 days
Protocol: Cells grown on a glass cover slip were fixed with PBS containing 4% (w/v) paraformaldehyde at room temperature for 10 minutes, and permeabilization treatment was performed in PBS containing 0.2% (w/v) Triton X-100 and 2 mg/ml BSA for 10 minutes. Further, cells grown by three-dimensional culture were fixed in PBS containing 4% (w/v) paraformaldehyde at room temperature for 30 minutes, and blocked in PBS containing 0.5% (w/v) Triton X-100 and 40 mg/ml BSA for 30 minutes. […]
Further, HepG2 cells transfected with control siRNA or siRNA (GREB1 #2 siRNA) were cultured in 3D Matrigel for 5 days, and the cultured cells were stained with phalloidin to measure the areas of spheres (n=20). […] The ratio of spheres having polarized lumens was calculated as a ratio of spheres having F-actin-positive central microlumen to the total spheres.
Further, HepG2 cells expressing GFP or GFP-GREB1 were transfected with control ASO or each of the above-described GREB1 ASOs, and cultured in three-dimensional Matrigel for 4 days. The cultured cells were stained with phalloidin and Hoechst33342, and the areas of spheres were calculated (n=50).

**Q.** With “GREB1 #2 siRNA: siRNA against human GREB1; sense 5′-CCUCCUACAAAGCAAUAUUTT-3′ (SEQ ID NO: 6), antisense SEQ ID NO: 7 (antisense AAUAUUGCUUUGUAGGAGGTT; chemistry not given here)” as the substance, how does the “proliferative capacity of HepG2 cells in two-dimensional culture” value (HepG2 cells [1]; GREB1-transduced HepG2 cells) read?
**A.** not affected

**Q.** And the “proliferative capacity of HepG2 cells in two-dimensional culture” value (HepG2 cells [1]; mock HepG2 cells, relative cell number by Cyquant over time)?
**A.** reduced

**Q.** What about the “amount of acetylated histone 4 in the PAI-1 gene locus (exon 2)” value [2] of the same substance?
**A.** increased

**Q.** And the “expression levels of PAI-1 and SNAIL2” value (HepG2 cells [3]; HepG2/GFP cells, real-time PCR, n=3)?
**A.** increased

**Q.** And the “PAI-1 and SNAIL2 phenotypes of GREB1 knockdown” value (HepG2 cells [3]; HepG2/GFP-GREB1 cells (expression of GFP-GREB1))?
**A.** restored

**Q.** And the “amounts of cleaved caspase 3 and PARP1” value (HepG2 cells [3]; HepG2 cells, 0.1% FBS for 2 days, lysate probing)?
**A.** increased

**Q.** And the “expressions of β-catenin and Axin2” value (HepG2 cells [3]; HepG2 cells, GREB1 knockdown, lysate probing)?
**A.** no effect

**Q.** What about the “expressions of PRLR and XBP1 (ER signal target genes)” value (HepG2 cells [3]; HepG2 cells, GREB1 knockdown, real-time PCR) of the same substance?
**A.** no effect

**Q.** And the “expression of cell cycle regulators cyclinA, cyclinB, phosphorylated histone H3” value (HepG2 cells [3]; HepG2 cells, medium containing 1% FBS for 1 day, lysate probing)?
**A.** decreases

**Q.** What about the “increases in mRNA levels of PAI-1 and SNAIL2 by knockdown of GREB1” value (HepG2 cells [3]; HepG2 cells, presence or absence of TGFβ receptor inhibitor (ALK5 inhibitor)) of the same substance?
**A.** TGFβ receptor signal dependent

**Q.** What about the “expressions of DLK1, AFP, and PEG3” value (HepG2 cells [3]; HepG2 cells, real-time PCR) of the same substance?
**A.** significantly decreased

**Q.** What about the “decrease in expression of AFP by knockdown of GREB1” value (HepG2 cells [3]; Smad2/3 knockout HepG2 cells vs HepG2 cells, real-time PCR) of the same substance?
**A.** restored

**Q.** What about the “decrease in expression of DLK1 by knockdown of GREB1” value (HepG2 cells [3]; effect of Smad2/3 knockout in HepG2 cells) of the same substance?
**A.** no effect

**Q.** What about the “ratio of spheres having polarized lumens” value (HepG2 cells [4]) of the same substance?
**A.** increased

**Q.** What about the area of sphere (HepG2 cells [4]; phalloidin, n=20) of the same substance?
**A.** reduced the area of sphere to half
